Each block holds one compound with its values, some of them ahead of it.
What was measured:
[1] = tested on: Friedreich's ataxia patients; test: Friedreich's Ataxia Rating Scale-Neurological (FARS-Neuro); assay type: in vivo, human
From the text: (§1) The primary study objectives were to evaluate the safety and tolerability of orally administered 11,11-D2-linoleic acid ethyl ester. Additional study objectives included identifying the PK of 11,11-D2-linoleic acid ethyl ester following single and multiple oral dose administration and establishing an optimum dose of 11,11-D2-linoleic acid ethyl ester. Additional clinical testing consisted of the Friedreich's Ataxia Rating Scale (FARS)-Neurological point (FARS-Neuro), the timed 25-foot walk (T25FW) with an electronic sensor to measure multiaxis components of motion during the study, and cardiopulmonary exercise testing (CPET). The CPET was performed on an electronically braked cycle ergometer (Lode Corival, Groningen, The Netherlands). […] Heart rate (HR), blood pressure (BP), ratings of perceived exertion (RPE), pulse oximetry, and expired gases were monitored in accord with standard exercise testing guidelines. […] Heart rate was measured by electrocardiogra (Pulse Biomedical, King of Prussia, PA), BP was determined by auscultation, RPE was estimated using the standard 6 to 20 scale, and expired gases were collected through a silicone rubber mask (Hans Rudolph, Shawnee, KS) and analyzed continuously using a metabolic cart (Parvomedics, AQ5 Sandy, UT) Vacumetrics (Ventura, CA). […] All other variables were primarily assessed to monitor patient safety and progress during the exercise trial. […]

[2] = Red blood cell (RBC) concentrations by LC-MS in the phase I/II trial; assay type: in vivo, human
Description: (§2) PK samples were obtained predose and at 0.5, 1, 1.5, 2, 4, 6, 8, 12, 16, and 24 hours following the first dose and 14, 28, 29, 30, and 31 days following enrollment. The samples taken on Days 29-31 represent Isotopically modified polyunsaturated fatty acid, ester, thioester, amide, or other prodrug thereof (e.g., 11,11,D2-linoleic acid ethyl ester) washout levels. D2-LA, linoleic acid (LA), deuterated arachidonic acid (D2-AA), and arachidonic acid (ARA) concentrations were measured in the samples.
(§3) Plasma concentrations of 11,11-D2-linoleic acid ethyl ester (combined free acid form and ester form) and non-deuterated analogs were determined by liquid chromatography and mass spectrometry (LCMS). Blood was collected in K2EDTA anticoagulant tubes, centrifuged to obtain plasma and red blood cells (RBCs), and frozen until analyzed. The samples were hydrolyzed to free fatty acids and analyzed by high performance LC-MS by Good Laboratory Practice validated methods. Low-intensity D2 and high-intensity H2 signals were measured with high accuracy at Ricerca Biosciences, using an AB SCIEX 6500 tandem-quadrupole MS. The 13C2 isotopomer signal was used as a calibration standard for 11,11,D2-linoleic acid ethyl ester; a polydeuterated internal standard was utilized. The enzymatic elongation/desaturation metabolite, 13,13-D2-arachidonic acid (D2-AA), was also measured, in plasma and red blood cells (RBCs).
The ability of 11,11-D2-linoleic acid ethyl ester to enter the cellular membrane compartment was assessed by measuring 11,11-D2-linoleic acid ethyl ester and LA concentration in RBCs during the 28-day period.

[3] = tested on: Friedreich's ataxia patients; test: Phase I/II double blind, comparator-controlled trial: safety and tolerability; assay type: in vivo, human; details: for Safety and tolerability: oral, 1.8 or 9.0 g/day, FRDA patients
Description: A phase I/II double blind, comparator-controlled trial with 2 doses of 11,11-D2-linoleic acid ethyl ester in Friedreich's ataxia patients (9 subjects in each cohort) was conducted. Subjects were randomized 2:1 to receive either 11,11-D2-linoleic acid ethyl ester (1.8 or 9.0 g/day), or a matching dose of non-deuterated ethyl linoleate as comparator for 28 days.
(§4) The primary study objectives were to evaluate the safety and tolerability of orally administered 11,11-D2-linoleic acid ethyl ester. Additional study objectives included identifying the PK of 11,11-D2-linoleic acid ethyl ester following single and multiple oral dose administration and establishing an optimum dose of 11,11-D2-linoleic acid ethyl ester. Additional clinical testing consisted of the Friedreich's Ataxia Rating Scale (FARS)-Neurological point (FARS-Neuro), the timed 25-foot walk (T25FW) with an electronic sensor to measure multiaxis components of motion during the study, and cardiopulmonary exercise testing (CPET). The CPET was performed on an electronically braked cycle ergometer (Lode Corival, Groningen, The Netherlands). The protocol included: 5 minutes of rest; 3 minutes of an unloaded cycling warm-up; a progressive protocol with increased workload each minute (5-25 watts based on estimated functional capacity); 2 minutes of an unloaded cycling recovery; and 10 minutes of passive recovery. Heart rate (HR), blood pressure (BP), ratings of perceived exertion (RPE), pulse oximetry, and expired gases were monitored in accord with standard exercise testing guidelines. Scc Pescatello et al., Thompson P. ACSM's Guidelines for Exercise Testing and Prescription. Baltimore, MD: Wolters Kluwer; 2014:114-141. Heart rate was measured by electrocardiogra (Pulse Biomedical, King of Prussia, PA), BP was determined by auscultation, RPE was estimated using the standard 6 to 20 scale, and expired gases were collected through a silicone rubber mask (Hans Rudolph, Shawnee, KS) and analyzed continuously using a metabolic cart (Parvomedics, AQ5 Sandy, UT) Vacumetrics (Ventura, CA). Endpoints of interest were peak oxygen consumption (VO2 peak) and peak workload. All other variables were primarily assessed to monitor patient safety and progress during the exercise trial.
The study included male or female participants, aged 18 to 50 years, with a FRDA onset at equal or less than 25 years of age, homozygosity for GAA repeat expansions in FXN, and FARS-Neuro range of 20 to 90 points. Participants were ambulatory (with or without assistive device), capable of performing other assessments/evaluations, with a body mass index (BMI) equal or less than 34 kg/m^2. Subjects were agreeable to dietary restriction coaching from a diet counselor to lower PUFA dietary intake, for maximal incorporation of 11,11-D2-linoleic acid ethyl ester. Sample size was selected to ensure 12 fully evaluable patients for active treatment and 6 patients for the comparator treatment. It was not powered, but considered adequate for a first-in-human trial of 11,11-D2-linoleic acid ethyl ester.
A randomization schedule was generated before the first dosing period by Agility Clinical, Inc. (Carlsbad, CA) that followed their established standard operating procedures regarding generation, security, and distribution of the randomization scheme. Patients who provided informed consent and met all enrollment criteria were randomized into the study. In order to randomize a patient, the site contacted the unblinded statistician at Agility, Inc to identify which kit should be provided to the patient.
Patients were randomly assigned to receive one of two treatments (11,11,D2-linoleic acid ethyl ester or comparator) following a 2:1 ratio, respectively. The study sponsor, investigators, research pharmacy, and patients were blinded to the subject's treatment. […]

[4] = tested on: Friedreich's ataxia patients; test: Cardiopulmonary exercise testing (CPET): peak workload, VO2max; assay type: in vivo, human; details: for Median change from baseline in peak oxygen consumption (VO2max): baseline to day 28, P=0.116
From the text: as §4
Four protocol-defined outcomes (peak workload, VO2max, FARS-Neuro, and T25FW) were examined to explore for possible endpoints for future studies in FRDA. Nonparametric statistics were used to compare the results of those receiving 11,11-D2-linoleic acid ethyl ester to comparator. A modified intention-to-treat (mITT) population was used for the VO2max and peak workload testing analysis because 2 subjects were unable to complete the exercise test. One subject was unable to establish required pedal cadence, and the test was terminated at the conclusion of the warm-up at baseline and day 27 and 1 subject had to stop the day 27 testing because the subject's knees were hitting together and the subject was unable to maintain the RPM. […] After Bonferroni adjustment for testing the four outcomes, the change in peak workload between study drug and comparator remained significant (P=0.032). This Bonferroni adjustment is standard in early-stage trials to analyze both prospective or post-hoc data from multiple exploratory efficacy endpoints in order, to determine the most suitable primary endpoint for subsequent pivotal trials.

[5] = tested on: Friedreich's ataxia patients; test: Timed 25-foot walk (T25FW) with electronic motion sensor or stopwatch; assay type: in vivo, human
From the text: as §1

[6] = Plasma PK by LC-MS (D2-LA, LA, D2-AA) in the phase I/II trial
Description: as §2, §3

[7] = drug group, cohort 2 (4.5 g BID), 28 days

- RBC concentration of D2-LA as percentage of total LA (D2-LA plus LA), mean ([2]; cohort 1): 6.52%
- RBC concentration of D2-LA as percentage of total LA (D2-LA plus LA), mean ([2]; cohort 2): 25.8%
- Mean RBC concentration of D2-LA ([2]; day 28, cohort 1 (1.8 g QD)): 14.6 ± 8.7 µg/mL
- Mean RBC concentration of D2-LA ([2]; day 28, cohort 2 (4.5 g BID)): 26.1 ± 19.2 µg/mL
- Increase of day 28 24-hour AUC when the daily dose was increased 5-fold ([6]; human, in vivo): approximately 4 fold
- Time of maximum plasma D2-LA concentration ([6]; in vivo): 8 to 10 h
- Time to steady state in the plasma and in RBCs ([6]; in vivo, po): ≤ 28 days
SMILES: [2H]C([2H])(/C=C\CCCCC)/C=C\CCCCCCCC(=O)OCC [11,11-D2-linoleic acid ethyl ester]
- Median decrease in FARS-Neuro ([1]; baseline to day 28): 4.75 FARS points
- Difference in FARS points decrease between drug and placebo groups ([1]; baseline to day 28, P=0.348 ITT): 1.95 FARS points
- Diarrhea assessed as "possibly related to study drug" [3, 7]: 3 subjects
- Diarrhea assessed as "probably related to study drug" [3, 7]: 1 subject
- Subjects who discontinued the study because of steatorrhea ([3]; high-dose group (cohort 2), BMI 15.4, within the first week): One
- Safety and tolerability ([3]; 28 days): safe and tolerable
- Safety and tolerability ([3]; 28 days, listed as 11,11,D2-linoleic acid ethyl ester): well tolerated
- Change in VO2max between drug and comparator ([4]; baseline to day 28): 17.5%
- Median change from baseline in peak oxygen consumption (VO2max) [4]: 0.14 L/min
- Change in peak workload in the drug group at study end-point ([4]; baseline to day 28, mITT): 25.7%
- Improvement in peak workload from baseline to day 28 ([4]; study drug (n=10) versus comparator (n=6), mITT, P=0.008): 0.16 watts/kg
- T25FW^−1 time, traditionally measured (by stopwatch) ([5]; P=0.88): no signal of significance
- Improvement of stride speed (stride time)^−1 ([5]; electronic motion sensing device on the ankle, 25-foot timed walk, P=0.15 ITT): 7%

SMILES: [2H]C([2H])(/C=C\C/C=C\C/C=C\CCCC(=O)O)/C=C\CCCCC [D2-AA, 13,13-D2-arachidonic acid]
- Mean plasma concentration of D2-AA ([6]; high dose (4.5 g BID), 72-hour period after the last dose (day 28)): around 22 μg/mL
- Plasma concentration of D2-AA (metabolite) ([6]; high dose, predose baseline and day 1, LOQ 1 μg/mL): below or slightly above the LOQ
- Plasma concentration of D2-AA (metabolite) ([6]; low dose 11,11-D2-linoleic acid ethyl ester, day 1): below quantitation
- Mean plasma concentration of D2-AA, maximum at 32 hours after the last dose ([6]; low dose (1.8 g QD), after day 28): 5.53 µg/mL
- Mean plasma concentration of D2-AA, maximum at 6 hours after the last dose ([6]; low dose (1.8 g QD), day 28): 3.86 µg/mL

SMILES: CCCCC/C=C\C/C=C\CCCCCCCC(=O)OCC [comparator, ethyl linoleate, reference compound]
- Diarrhea (TEAE) ([3]; both, human, in vivo, 28 days): 1 subject
- Median change from baseline in peak oxygen consumption (VO2max) [4]: -0.02 L/min

Source: patent publication US20240238238A1, “Isotopically Modified Composition and Therapeutic Uses Thereof” (BioJiva LLC, priority 2018, published 2024)
